Structures can show the parent of a compound that is named as a salt. Residues, ends and D or L forms follow the SMILES beside them.
Legend:
[1] = molecular target: T1, HGFA (Homo sapiens, UniProt Q04756); assay: HGFA enzyme inhibition (published assays); type: biochemical
T1 sequence (Q04756 373-655): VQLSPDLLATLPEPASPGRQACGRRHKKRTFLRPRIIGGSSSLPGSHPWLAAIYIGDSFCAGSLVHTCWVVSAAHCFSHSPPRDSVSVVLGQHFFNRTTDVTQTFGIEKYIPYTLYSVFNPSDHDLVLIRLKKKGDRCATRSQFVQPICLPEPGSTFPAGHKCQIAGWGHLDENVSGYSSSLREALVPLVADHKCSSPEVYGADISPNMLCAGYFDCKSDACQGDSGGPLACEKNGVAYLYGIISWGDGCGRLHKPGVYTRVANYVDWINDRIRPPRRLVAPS

[2] = molecular target: Hepsin (Homo sapiens, UniProt P05981); assay: Hepsin enzyme inhibition (published assays); type: biochemical
[3] = molecular target: Thrombin (Homo sapiens, UniProt P00734); assay: Thrombin enzyme inhibition (published assays); type: biochemical
[4] = molecular target: Factor Xa (Homo sapiens, UniProt P00742); assay: Factor Xa enzyme inhibition (published assays); type: biochemical
[5] = tested on: wild-type SARS-CoV-2; assay: microbe, parasite or virus in culture; type: cell-based; settings: Severe acute respiratory syndrome coronavirus 2, Calu-3, 72 h, read-out: SARS-CoV-2 Wild-type Calu-3 IC50 (nM)
[6] = molecular target: FXa (Homo sapiens, UniProt P00742); assay: Protease profiling panel, 10-dose IC50; type: biochemical
[7] = molecular target: Kallikrein 5 (Homo sapiens, UniProt Q9Y337); assay: Protease profiling panel, 10-dose IC50; type: biochemical
[8] = molecular target: Kallikrein 7 (Homo sapiens, UniProt P49862); assay: Protease profiling panel, 10-dose IC50; type: biochemical
[9] = molecular target: Kallikrein 12 (Homo sapiens, UniProt Q9UKR0); assay: Protease profiling panel, 10-dose IC50; type: biochemical
[10] = molecular target: Kallikrein 13 (Homo sapiens, UniProt Q9UKR3); assay: Protease profiling panel, 10-dose IC50; type: biochemical
[11] = molecular target: Kallikrein 14 (Homo sapiens, UniProt Q9P0G3); assay: Protease profiling panel, 10-dose IC50; type: biochemical
[12] = molecular target: Matriptase 2 (Homo sapiens, UniProt Q8IU80); assay: Protease profiling panel, 10-dose IC50; type: biochemical; settings: values lower than 1.02E-09 M estimated from best curve
[13] = molecular target: Plasma Kallikrein (Homo sapiens, UniProt P03952); assay: Protease profiling panel, 10-dose IC50; type: biochemical
[14] = molecular target: Plasmin (Homo sapiens, UniProt P00747); assay: Protease profiling panel, 10-dose IC50; type: biochemical
[15] = molecular target: Thrombin a (Homo sapiens, UniProt P00734); assay: Protease profiling panel, 10-dose IC50; type: biochemical
[16] = molecular target: Trypsin (Bos taurus, UniProt P00760); assay: Protease profiling panel, 10-dose IC50; type: biochemical; settings: values lower than 1.02E-09 M estimated from best curve
[17] = molecular target: Tryptase b2 (Homo sapiens, UniProt P20231); assay: Protease profiling panel, 10-dose IC50; type: biochemical; settings: values lower than 1.02E-09 M estimated from best curve
[18] = molecular target: Tryptase g1 (Homo sapiens, UniProt Q9NRR2); assay: Protease profiling panel, 10-dose IC50; type: biochemical; settings: values lower than 1.02E-09 M estimated from best curve
[19] = molecular target: Urokinase (Homo sapiens, UniProt P00749); assay: Protease profiling panel, 10-dose IC50; type: biochemical
[20] = molecular target: Caspase 6 (Homo sapiens, UniProt P55212); assay: Protease profiling panel, 10-dose IC50; type: biochemical
[21] = molecular target: Caspase 7 (Homo sapiens, UniProt P55210); assay: Protease profiling panel, 10-dose IC50; type: biochemical
[22] = molecular target: T2, Matriptase (Homo sapiens, UniProt Q9Y5Y6); assay: Matriptase enzyme inhibition (published assays); type: biochemical
T2 sequence (Q9Y5Y6 1-855): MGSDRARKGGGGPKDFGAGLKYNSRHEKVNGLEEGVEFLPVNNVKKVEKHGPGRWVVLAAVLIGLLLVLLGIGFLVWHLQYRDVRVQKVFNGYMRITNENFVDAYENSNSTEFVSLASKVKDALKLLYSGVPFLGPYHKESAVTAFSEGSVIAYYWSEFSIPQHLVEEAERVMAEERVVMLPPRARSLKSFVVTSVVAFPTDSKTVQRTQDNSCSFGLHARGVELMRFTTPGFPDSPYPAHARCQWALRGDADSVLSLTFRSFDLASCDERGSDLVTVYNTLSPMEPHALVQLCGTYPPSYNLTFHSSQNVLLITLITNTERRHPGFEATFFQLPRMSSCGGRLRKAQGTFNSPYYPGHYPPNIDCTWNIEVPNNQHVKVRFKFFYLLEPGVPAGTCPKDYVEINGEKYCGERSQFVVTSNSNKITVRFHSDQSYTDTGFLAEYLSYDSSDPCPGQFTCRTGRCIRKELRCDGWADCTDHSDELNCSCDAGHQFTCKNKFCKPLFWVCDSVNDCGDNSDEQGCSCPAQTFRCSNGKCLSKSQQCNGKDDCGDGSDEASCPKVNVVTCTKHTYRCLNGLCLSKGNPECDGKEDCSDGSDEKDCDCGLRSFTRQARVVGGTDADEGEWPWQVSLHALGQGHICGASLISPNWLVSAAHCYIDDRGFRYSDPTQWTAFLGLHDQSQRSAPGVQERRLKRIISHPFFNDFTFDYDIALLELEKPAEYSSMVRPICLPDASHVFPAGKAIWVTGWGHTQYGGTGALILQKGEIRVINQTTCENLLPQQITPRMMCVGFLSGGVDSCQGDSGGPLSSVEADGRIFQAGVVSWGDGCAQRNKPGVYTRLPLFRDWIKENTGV

[23] = tested on: VSV-SARS-CoV-2-Spike protein Pseudotype virus; assay: microbe, parasite or virus in culture; type: cell-based; settings: read-out: VSV-SARS-CoV-2 Calu-3 EC50
[24] = molecular target: Caspase 1 (Homo sapiens, UniProt P29466); assay: Protease profiling panel, 10-dose IC50; type: biochemical
[25] = molecular target: Caspase 2 (Homo sapiens, UniProt P42575); assay: Protease profiling panel, 10-dose IC50; type: biochemical
[26] = molecular target: Caspase 4 (Homo sapiens, UniProt P49662); assay: Protease profiling panel, 10-dose IC50; type: biochemical
[27] = molecular target: Caspase 5 (Homo sapiens, UniProt P51878); assay: Protease profiling panel, 10-dose IC50; type: biochemical
[28] = molecular target: Caspase 8 (Homo sapiens, UniProt Q14790); assay: Protease profiling panel, 10-dose IC50; type: biochemical
[29] = molecular target: Caspase 9 (Homo sapiens, UniProt P55211); assay: Protease profiling panel, 10-dose IC50; type: biochemical
[30] = molecular target: Caspase 10 (Homo sapiens, UniProt Q92851); assay: Protease profiling panel, 10-dose IC50; type: biochemical
[31] = molecular target: Caspase 11 (Mus musculus, UniProt P70343); assay: Protease profiling panel, 10-dose IC50; type: biochemical
[32] = molecular target: TMPRSS2 protease domain (Homo sapiens, UniProt O15393); type: biochemical
[33] = molecular target: Kallikrein 1 (Homo sapiens, UniProt P06870); assay: Protease profiling panel, 10-dose IC50; type: biochemical
[34] = molecular target: Proteinase A; type: biochemical
[35] = molecular target: Calpain 1 (Homo sapiens, UniProt P07384); assay: Protease profiling panel, 10-dose IC50; type: biochemical
[36] = molecular target: Cathepsin B (Homo sapiens, UniProt P07858); assay: Protease profiling panel, 10-dose IC50; type: biochemical
[37] = molecular target: Cathepsin C (Homo sapiens, UniProt P53634); assay: Protease profiling panel, 10-dose IC50; type: biochemical
[38] = molecular target: Cathepsin H (Homo sapiens, UniProt P09668); assay: Protease profiling panel, 10-dose IC50; type: biochemical
[39] = molecular target: Cathepsin L (Homo sapiens, UniProt P07711); assay: Protease profiling panel, 10-dose IC50; type: biochemical
[40] = molecular target: Cathepsin S (Homo sapiens, UniProt P25774); assay: Protease profiling panel, 10-dose IC50; type: biochemical
[41] = molecular target: Cathepsin V (Homo sapiens, UniProt O60911); assay: Protease profiling panel, 10-dose IC50; type: biochemical
[42] = molecular target: Papain (Carica papaya, UniProt P00784); assay: Protease profiling panel, 10-dose IC50; type: biochemical
Chain of Papain (P00784 134-345): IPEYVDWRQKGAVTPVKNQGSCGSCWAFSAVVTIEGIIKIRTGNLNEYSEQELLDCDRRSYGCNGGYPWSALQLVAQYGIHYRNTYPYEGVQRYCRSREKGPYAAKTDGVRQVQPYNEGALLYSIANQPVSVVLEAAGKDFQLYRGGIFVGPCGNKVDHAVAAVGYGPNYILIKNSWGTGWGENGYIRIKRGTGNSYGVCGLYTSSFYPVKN

Chain of Factor Xa (P00742 235-488 limits assumed): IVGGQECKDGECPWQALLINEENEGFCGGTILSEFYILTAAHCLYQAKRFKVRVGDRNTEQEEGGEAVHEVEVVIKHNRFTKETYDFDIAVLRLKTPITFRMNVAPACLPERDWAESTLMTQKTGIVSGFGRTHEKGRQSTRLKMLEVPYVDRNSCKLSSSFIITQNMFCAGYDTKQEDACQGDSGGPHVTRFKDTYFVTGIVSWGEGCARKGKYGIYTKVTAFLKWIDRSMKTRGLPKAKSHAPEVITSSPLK
Chain of Factor Xa (P00742 41-179 partner limits assumed): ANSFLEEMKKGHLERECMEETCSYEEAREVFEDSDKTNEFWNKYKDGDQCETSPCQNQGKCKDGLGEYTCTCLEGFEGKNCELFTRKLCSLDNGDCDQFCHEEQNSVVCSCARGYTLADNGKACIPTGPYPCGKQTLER
Chain of Hepsin (P05981 whole entry): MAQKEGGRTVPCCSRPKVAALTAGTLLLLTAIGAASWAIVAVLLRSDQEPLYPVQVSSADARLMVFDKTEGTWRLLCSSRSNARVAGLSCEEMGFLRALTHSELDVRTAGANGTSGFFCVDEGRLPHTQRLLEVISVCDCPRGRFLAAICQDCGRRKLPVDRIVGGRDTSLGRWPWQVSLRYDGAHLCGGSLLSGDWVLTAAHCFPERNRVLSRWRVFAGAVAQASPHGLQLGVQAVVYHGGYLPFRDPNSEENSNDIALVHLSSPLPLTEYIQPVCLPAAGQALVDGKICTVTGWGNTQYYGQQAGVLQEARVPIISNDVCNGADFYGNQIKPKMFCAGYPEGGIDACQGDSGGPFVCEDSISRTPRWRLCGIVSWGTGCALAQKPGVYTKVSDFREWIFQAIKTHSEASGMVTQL
Chain of TMPRSS2 protease domain (O15393 256-492): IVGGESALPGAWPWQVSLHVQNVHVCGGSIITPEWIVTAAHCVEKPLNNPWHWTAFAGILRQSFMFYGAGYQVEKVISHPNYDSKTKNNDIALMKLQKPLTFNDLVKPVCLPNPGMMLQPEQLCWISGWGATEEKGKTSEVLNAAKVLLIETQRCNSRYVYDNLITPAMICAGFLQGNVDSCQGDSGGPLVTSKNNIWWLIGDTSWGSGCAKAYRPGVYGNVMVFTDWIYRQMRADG
Chain of Caspase 10 (Q92851 220-521, species assumed): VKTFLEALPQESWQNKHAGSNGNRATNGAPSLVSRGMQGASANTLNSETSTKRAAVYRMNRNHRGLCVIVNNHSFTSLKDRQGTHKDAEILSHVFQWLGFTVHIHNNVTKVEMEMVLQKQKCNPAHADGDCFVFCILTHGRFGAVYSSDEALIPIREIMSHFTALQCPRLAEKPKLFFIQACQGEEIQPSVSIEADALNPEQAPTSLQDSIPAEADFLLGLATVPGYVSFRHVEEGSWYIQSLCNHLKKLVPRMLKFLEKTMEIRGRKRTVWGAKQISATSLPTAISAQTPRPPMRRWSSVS
Chain of Kallikrein 13 (Q9UKR3 17-277, species assumed): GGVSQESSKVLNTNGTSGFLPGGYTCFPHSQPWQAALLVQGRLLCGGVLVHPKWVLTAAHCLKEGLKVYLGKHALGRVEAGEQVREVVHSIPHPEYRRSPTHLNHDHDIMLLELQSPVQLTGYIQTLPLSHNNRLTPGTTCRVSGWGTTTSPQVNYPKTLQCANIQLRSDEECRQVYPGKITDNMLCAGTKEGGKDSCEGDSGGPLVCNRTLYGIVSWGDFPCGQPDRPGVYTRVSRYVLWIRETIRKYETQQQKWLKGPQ
Chain of FXa (P00742 235-488 limits assumed): as the sequence (P00742 235-488 limits assumed) above
Chain of FXa (P00742 41-179 partner limits assumed): as the sequence (P00742 41-179 partner limits assumed) above
Chain of Tryptase b2 (P20231 31-275): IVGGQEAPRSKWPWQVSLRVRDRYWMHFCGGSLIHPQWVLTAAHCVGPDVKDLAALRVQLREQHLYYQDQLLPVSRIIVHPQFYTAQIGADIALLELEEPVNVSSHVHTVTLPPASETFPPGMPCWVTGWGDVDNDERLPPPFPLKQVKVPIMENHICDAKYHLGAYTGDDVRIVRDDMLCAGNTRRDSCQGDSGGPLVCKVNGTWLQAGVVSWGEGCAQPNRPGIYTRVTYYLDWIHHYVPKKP
Chain of Caspase 8 (Q14790 217-479, species assumed): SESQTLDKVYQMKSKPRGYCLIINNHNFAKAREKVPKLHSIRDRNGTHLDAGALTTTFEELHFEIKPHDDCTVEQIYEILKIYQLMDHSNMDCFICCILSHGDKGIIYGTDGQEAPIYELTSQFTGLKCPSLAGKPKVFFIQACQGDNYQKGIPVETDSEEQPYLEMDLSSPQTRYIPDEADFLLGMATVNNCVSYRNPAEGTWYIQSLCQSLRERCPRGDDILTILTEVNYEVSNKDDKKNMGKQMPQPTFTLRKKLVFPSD
Chain of Caspase 9 (P55211 whole entry, species assumed): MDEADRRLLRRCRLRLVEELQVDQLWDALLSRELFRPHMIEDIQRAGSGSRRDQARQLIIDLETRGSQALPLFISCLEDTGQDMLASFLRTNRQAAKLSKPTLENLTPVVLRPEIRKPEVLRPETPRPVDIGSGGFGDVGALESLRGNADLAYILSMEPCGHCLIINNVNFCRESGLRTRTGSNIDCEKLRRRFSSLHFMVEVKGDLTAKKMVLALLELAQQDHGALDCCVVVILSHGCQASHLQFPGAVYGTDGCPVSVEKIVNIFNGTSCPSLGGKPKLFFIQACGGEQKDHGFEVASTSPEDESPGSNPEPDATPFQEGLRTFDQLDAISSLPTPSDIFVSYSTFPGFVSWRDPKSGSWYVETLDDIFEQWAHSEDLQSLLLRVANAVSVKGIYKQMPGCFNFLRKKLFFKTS
Chain of Kallikrein 7 (P49862 30-253, species assumed): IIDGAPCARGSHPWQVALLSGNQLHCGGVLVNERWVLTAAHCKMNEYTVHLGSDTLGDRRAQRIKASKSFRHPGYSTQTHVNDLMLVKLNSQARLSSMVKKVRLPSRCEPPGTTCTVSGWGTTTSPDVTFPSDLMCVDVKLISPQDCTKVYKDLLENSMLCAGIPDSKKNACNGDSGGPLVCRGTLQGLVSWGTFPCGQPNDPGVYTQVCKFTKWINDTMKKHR
Chain of Caspase 7 (P55210 whole entry, species assumed): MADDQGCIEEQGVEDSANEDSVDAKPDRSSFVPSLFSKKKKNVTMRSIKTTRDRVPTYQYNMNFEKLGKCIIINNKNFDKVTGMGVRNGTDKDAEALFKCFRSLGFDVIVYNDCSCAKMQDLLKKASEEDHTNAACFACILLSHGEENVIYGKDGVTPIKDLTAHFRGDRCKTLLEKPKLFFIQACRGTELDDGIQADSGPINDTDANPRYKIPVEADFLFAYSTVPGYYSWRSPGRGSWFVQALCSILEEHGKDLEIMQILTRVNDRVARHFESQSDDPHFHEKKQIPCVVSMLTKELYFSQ
Chain of Calpain 1 (P07384 whole entry): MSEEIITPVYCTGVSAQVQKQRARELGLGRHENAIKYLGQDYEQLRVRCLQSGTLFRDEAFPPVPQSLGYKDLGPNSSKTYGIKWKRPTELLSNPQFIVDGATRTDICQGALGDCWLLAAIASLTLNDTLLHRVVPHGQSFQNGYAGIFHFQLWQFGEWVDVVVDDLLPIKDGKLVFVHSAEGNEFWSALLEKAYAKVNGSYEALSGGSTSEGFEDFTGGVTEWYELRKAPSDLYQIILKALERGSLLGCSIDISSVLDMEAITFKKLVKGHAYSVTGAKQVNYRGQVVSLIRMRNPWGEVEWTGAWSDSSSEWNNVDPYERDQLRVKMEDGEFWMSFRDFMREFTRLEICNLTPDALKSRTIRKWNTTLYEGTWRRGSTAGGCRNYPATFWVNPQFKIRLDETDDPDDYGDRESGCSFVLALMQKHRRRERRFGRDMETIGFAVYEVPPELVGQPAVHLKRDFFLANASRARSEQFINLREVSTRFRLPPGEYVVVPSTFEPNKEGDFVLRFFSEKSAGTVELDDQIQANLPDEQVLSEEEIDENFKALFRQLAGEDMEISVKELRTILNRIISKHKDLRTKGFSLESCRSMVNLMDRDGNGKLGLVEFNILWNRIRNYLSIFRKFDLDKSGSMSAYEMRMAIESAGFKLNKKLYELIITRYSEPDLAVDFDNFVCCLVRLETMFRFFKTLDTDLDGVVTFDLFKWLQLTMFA
Chain of Calpain 1 (P04632 whole entry partner): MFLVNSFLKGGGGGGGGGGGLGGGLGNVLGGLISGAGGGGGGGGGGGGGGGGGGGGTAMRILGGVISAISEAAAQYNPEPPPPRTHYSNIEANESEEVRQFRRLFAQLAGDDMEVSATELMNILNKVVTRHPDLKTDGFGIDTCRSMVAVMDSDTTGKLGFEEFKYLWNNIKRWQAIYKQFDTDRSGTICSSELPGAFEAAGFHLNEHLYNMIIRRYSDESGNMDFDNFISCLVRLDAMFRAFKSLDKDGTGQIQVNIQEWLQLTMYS
Chain of Cathepsin V (O60911 114-334, species assumed): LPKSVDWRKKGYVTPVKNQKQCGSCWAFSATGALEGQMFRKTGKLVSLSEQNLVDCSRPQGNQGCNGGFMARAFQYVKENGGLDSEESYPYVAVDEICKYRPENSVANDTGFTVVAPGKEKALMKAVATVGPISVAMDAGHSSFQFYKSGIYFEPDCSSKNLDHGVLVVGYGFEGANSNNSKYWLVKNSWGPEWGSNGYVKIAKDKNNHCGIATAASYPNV
Chain of Cathepsin H (P09668 98-335, species assumed): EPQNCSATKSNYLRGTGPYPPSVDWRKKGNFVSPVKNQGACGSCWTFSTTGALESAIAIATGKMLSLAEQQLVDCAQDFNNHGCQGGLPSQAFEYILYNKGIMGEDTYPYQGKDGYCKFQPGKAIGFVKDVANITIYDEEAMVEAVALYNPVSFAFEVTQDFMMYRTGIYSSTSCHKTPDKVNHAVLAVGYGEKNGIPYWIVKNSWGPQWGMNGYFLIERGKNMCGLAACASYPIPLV

Row | Compound | IC50 [1] | IC50 [2] | IC50 [3] | IC50 [4] | IC50 [22] | other results
1 | N=C(N)c1ccc2cc(OC(=O)c3ccc(N=C(N)N)cc3)ccc2c1 [Nafamostat, reference compound] | 158 nM | 0.9 nM | 5020 nM | 4570 nM |  | IC50 [5]: 220 nM
2 | CCOC(=O)c1ccc(OC(=O)CCCCCN=C(N)N)cc1 [Gabexate mesylate] |  |  |  |  |  | IC50 [6]: 1860 nM; IC50 [7]: 4940 nM; IC50 [8]: 43100 nM; IC50 [9]: 94.3 nM; IC50 [10]: 12200 nM; IC50 [11]: 651 nM; IC50 [12]: 391 nM; IC50 [13]: 148 nM; IC50 [14]: 265 nM; IC50 [15]: 1570 nM; IC50 [16]: 30.7 nM; IC50 [17]: 9.7 nM; IC50 [18]: 13.3 nM; IC50 [19]: 24.4 nM
3 | CC(=O)N[C@@H](CC(=O)O)C(=O)N[C@@H](CCC(=O)O)C(=O)N[C@H](C(=O)N[C@H](C=O)CC(=O)O)C(C)C [DEVD-CHO] |  |  |  |  |  | IC50 [20]: 12.4 nM; IC50 [21]: 2.31 nM
4 | CC(=O)N[C@@H](CO)C(=O)N[C@@H](CCCCN)C(=O)N[C@@H](Cc1ccccc1)C(=O)N[C@@H](CCCNC(=N)N)C(=O)c1nccs1 [Compound 9, Ac-SKFR-kt] | 114 nM | 17 nM | > 20000 nM | 1060 nM | 6.1 nM | 
5 | Cyclo(DQK)R-kbt [Compound 20] | 16100 nM | 22 nM | > 20000 nM | > 20000 nM | 7.7 nM | EC50 [23]: 138 nM
6 | CC[C@H](C)[C@H](NC(C)=O)C(=O)N[C@@H](CCC(=O)O)C(=O)N[C@H](C(=O)N[C@H](C=O)CC(=O)O)[C@@H](C)O [IETD-CHO] (Ac-IETD-aldehyde) |  |  |  |  |  | IC50 [24]: 29.2 nM; IC50 [25]: 547 nM; IC50 [26]: 2130 nM; IC50 [27]: 11.5 nM; IC50 [28]: 2.83 nM; IC50 [29]: 26.4 nM; IC50 [30]: 9.17 nM; IC50 [31]: 567 nM
7 | CC(=O)N[C@@H](CCCCN)C(=O)N[C@@H](CCC(N)=O)C(=O)N[C@@H](Cc1ccccc1)C(=O)N[C@@H](CCCNC(=N)N)C(=O)c1nccs1 [Compound 10, Ac-KQFR-kt] | 116 nM | 1.2 nM | > 20000 nM | 158 nM | 1.4 nM | 
8 | CCC(CC)COC(=O)[C@H](C)N[P@](=O)(OC[C@H]1O[C@@](C#N)(c2ccc3c(N)ncnn23)[C@H](O)[C@@H]1O)Oc1ccccc1 [Remdesivir] |  |  |  |  |  | IC50 [5]: 1270 nM
9 | (MCA)-K-KARSAFA-K-(DnP) |  |  |  |  |  | Km [32]: 0.6 ± 0.05 µM; kcat [32]: 0.07 s⁻¹
10 | Cyclo(allylGLY)R-kbt [Compound 21] | > 20000 nM | 20 nM | > 20000 nM | 8810 nM | 14 nM | EC50 [23]: 565 nM
11 | CC(=O)N[C@@H](CO)C(=O)N[C@@H](CCC(N)=O)C(=O)N[C@@H](CC(C)C)C(=O)N[C@@H](CCCNC(=N)N)C(=O)c1nccs1 [Compound 11, Ac-SQLR-kt] | 364 nM | 0.68 nM |  |  | 18 nM | 
12 | Cyclo(DMK)R-kbt [Compound 19] | 3240 nM | 5.9 nM | 18500 nM | 1390 nM | 1 nM | EC50 [23]: 119 nM
13 | CC(=O)N[C@@H](CC(C)C)C(=O)N[C@@H](CC(C)C)C(=O)N[C@@H](CCCNC(=N)N)C(=O)c1nccs1 [Compound 18, Ac-LLR-kt] | 506 nM | 4.6 nM |  |  | 56 nM | EC50 [23]: 349 nM
14 | CC(=O)N[C@@H](CC(C)C)C(=O)N[C@@H](CC(C)C)C(=O)N[C@H](C=O)CCCNC(=N)N [Leupeptin] |  |  |  |  |  | IC50 [33]: 4610 nM; IC50 [34]: 244000 nM
15 | CC(=O)N[C@@H](Cc1c[nH]c2ccccc12)C(=O)N[C@@H](Cc1ccccc1)C(=O)N[C@@H](CCCNC(=N)N)C(=O)c1nc2ccccc2s1 [Compound 8, Ac-WFR-kbt] | 329 nM | 7.6 nM | > 20000 nM | 22 nM | 5.7 nM | 
16 | CC(C)C[C@H](NC(=O)[C@H]1O[C@@H]1C(=O)O)C(=O)NCCCCN=C(N)N [Compound E64, E64] |  |  |  |  |  | IC50 [35]: 47.1 nM; IC50 [36]: 7.33 nM; IC50 [37]: 1180 nM; IC50 [38]: 35.6 nM; IC50 [39]: 12.4 nM; IC50 [40]: 1.73 nM; IC50 [41]: 3.89 nM; IC50 [42]: 0.24 nM
17 | CC(=O)NC(CO)C(=O)NC(CCCCN)C(=O)NC(CC(C)C)C(=O)NC(CCCNC(=N)N)C(=O)c1nc2ccccc2s1 (centres unmarked) [Compound 3, Ac-SKLR-kbt] | 66 nM | 0.32 nM | > 20000 nM | 3800 nM | 6.1 nM | 
18 | CC(=O)N[C@H](Cc1c[nH]c2ccccc12)C(=O)N[C@@H](Cc1ccccc1)C(=O)N[C@@H](CCCNC(=N)N)C(=O)c1nc2ccccc2s1 [Compound 13, Ac-dWFR-kbt] | 27 nM | 1.1 nM | 3700 nM | 98 nM | 2.6 nM | EC50 [23]: 32 nM
19 | CC(=O)N[C@@H](Cc1ccccc1)C(=O)N[C@@H](CC(C)C)C(=O)N[C@@H](Cc1ccccc1)C(=O)N[C@@H](CCCNC(=N)N)C(=O)c1nc2ccccc2s1 [Compound 12, Ac-FLFR-kbt] | 228 nM | 2.9 nM | > 20000 nM | 26 nM | 7.2 nM | 
